Our source for the Ki values is ChEMBL document CHEMBL3351783, “Structural insights into carbonic anhydrase IX isoform specificity of carbohydrate-based sulfamates” (J Med Chem, 2014).

One may read the Ki as a measure of affinity in units of concentration, obtained from inhibition or displacement.

The target in test [1] is Carbonic anhydrase 9 (Homo sapiens, UniProt Q16790). The test can be described thus: Inhibition of human recombinant carbonic anhydrase 9 by stopped-flow CO2 hydration assay.
Test [2] deals with Carbonic anhydrase 1 (Homo sapiens, UniProt P00915). Briefly: Inhibition of human recombinant carbonic anhydrase 1 by stopped-flow CO2 hydration assay.
Chain of Carbonic anhydrase 1 (P00915 whole entry): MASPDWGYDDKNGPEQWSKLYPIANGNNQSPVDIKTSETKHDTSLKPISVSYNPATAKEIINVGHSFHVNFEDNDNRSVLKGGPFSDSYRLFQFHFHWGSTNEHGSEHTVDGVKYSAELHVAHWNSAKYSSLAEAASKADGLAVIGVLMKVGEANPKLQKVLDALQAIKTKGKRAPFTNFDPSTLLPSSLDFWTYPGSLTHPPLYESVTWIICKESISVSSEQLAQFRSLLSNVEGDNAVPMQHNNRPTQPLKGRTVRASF

As to `NS(=O)(=O)OCCCNS(=O)(=O)[C@@H]1O[C@H](CO)[C@@H](O)[C@H](O)[C@H]1O`, the Ki in test [1] amounted to 2 nM.
As for `COC(=O)[C@@H]1C[C@@H](OS(N)(=O)=O)CN1S(=O)(=O)[C@@H]1O[C@H](COC(C)=O)[C@@H](OC(C)=O)[C@H](OC(C)=O)[C@H]1OC(C)=O`, in test [1], the Ki was found to be 2 nM.
Same read-out and setting: the same measure for `CC(=O)OC[C@H]1O[C@@H](S(=O)(=O)N2CC[C@@H](OS(N)(=O)=O)C2)[C@H](OC(C)=O)[C@@H](OC(C)=O)[C@@H]1OC(C)=O`: 2 nM.
For `COC(=O)[C@H](CS(N)(=O)=O)NS(=O)(=O)[C@@H]1O[C@H](COC(C)=O)[C@@H](OC(C)=O)[C@H](OC(C)=O)[C@H]1OC(C)=O`, the Ki in test [2] was greater than 20000 nM.
Consider `CC(=O)OC[C@H]1O[C@@H](S(=O)(=O)NCCCOS(N)(=O)=O)[C@H](OC(C)=O)[C@@H](OC(C)=O)[C@@H]1OC(C)=O`, for which the Ki in test [1] is 215 nM.
As to `NS(=O)(=O)OC1CCN(S(=O)(=O)[C@@H]2O[C@H](CO)[C@@H](O)[C@H](O)[C@H]2O)CC1`, the Ki in test [2] is greater than 20000 nM.
As for `NS(=O)(=O)O[C@@H]1CCN(S(=O)(=O)[C@@H]2O[C@H](CO)[C@@H](O)[C@H](O)[C@H]2O)C1`, the Ki in test [1] amounted to 2 nM.
